# In patent publication US11999748B2, “Exatecan derivatives, linker-payloads, and conjugates and thereof” (priority 2021, dated 2024):
# Test system: high HER2 tumor cell line SK-BR-3
# Assay: Effect of small molecules on cell proliferation (CellTiter-Glo)
# Type: cell-based
# Settings: SK-BR-3, 120 h; (IC50 of control sample Dxd / IC50 of test sample) x 100
# Description: Study Purpose: In this experiment, cell viability was detected using CellTiter-Glo to evaluate the effects of the small molecule compounds on the proliferation of a high HER2 tumor cell line SK-BR-3, and to analyze the effects of the small molecule compounds on the proliferation of tumor cells.
# (4) After the drug was added, the cells were incubated in the incubator for 120 h.
# (3) ATP detection: Discard the culture medium and 100 μl/well DMEM was added, 50 μl/hole CTG was added into 96-well plate, protected from light using aluminum foil and oscillated using a vortex oscillator at room temperature of 200 rpm for 10 min.
# GraphPad software was used to process the data. […] If necessary, the relative biological activity of sample A, i.e., ratio activity was calculated. Dxd was used as the control sample for the ratio activity calculation. Cell proliferation inhibition rate (%)=(luminescence value of drug-treated group−luminescence value of puro group)/(luminescence value of blank control group−luminescence value of puro group)×100 Ratio activity of sample (%)=(IC50 value of the control sample/IC50 value of the test sample)×100 Ratio activity of control sample (%)=(IC50 value of the control sample/IC50 value of the previous control sample)×100
row,SMILES,Ratio activity (%)
1,"CC[C@@]1(O)C(=O)OCc2c1cc1n(c2=O)Cc2c-1nc1cc(F)c(C)c3c1c2[C@@H](NC(=O)CO)CC3 [Dxd, reference compound]",1%
2,CC[C@@]1(O)C(=O)OCc2c1cc1n(c2=O)Cc2c-1nc1cc(F)c(C)c3c1c2[C@@H](NC(=O)[C@@](C)(O)C(F)(F)F)CC3 [C688],0.744%
3,CC[C@@]1(O)C(=O)OCc2c1cc1n(c2=O)Cc2c-1nc1cc(F)c(Cl)c3c1c2[C@@H](NC(=O)[C@@H](O)C1CC1)CC3 [C622],0.669%
4,CC[C@@]1(O)C(=O)OCc2c1cc1n(c2=O)Cc2c-1nc1cc(F)c(OC)c3c1c2C(NC(=O)[C@@H](C)O)CC3 (some centres unmarked) [C668],0.231%
5,"CC[C@@]1(O)C(=O)OCc2c1cc1n(c2=O)Cc2c-1nc1cc(F)c(Cl)c3c1c2[C@H](NC(=O)CO)CC3 [C519, N-((1R,9S)-4-chloro-9-ethyl-5-fluoro-9-hydroxy-10,13-dioxo-2,3,9,10,13,15-hexahydro-1H,12H-benzo[de]pyrano[3,4′:6,7]indolizino[1,2-b]quinolin-1-yl)-2-hydroxyacetamide]",1.059%
6,CC[C@@]1(O)C(=O)OCc2c1cc1n(c2=O)Cc2c-1nc1cc(F)c(Br)c3c1c2[C@H](NC(=O)[C@@H](C)O)CC3 [C596],0.911%
7,"CC[C@@]1(O)C(=O)OCc2c1cc1n(c2=O)Cc2c-1nc1cc(F)c(C)c3c1c2[C@@H](NC(=O)C[C@H](C)O)CC3 [C589, (S)—N-((1S,9S)-9-ethyl-5-fluoro-9-hydroxy-4-methyl-10,13-dioxo-2,3,9,10,13,15-hexahydro-1H,12H-benzo[de]pyrano[3′,4′:6,7]indolizino[1,2-b]quinolin-1-yl)-3-hydroxybutanamide]",1.325%
8,CC[C@@]1(O)C(=O)OCc2c1cc1n(c2=O)Cc2c-1nc1cc(F)c(Br)c3c1c2[C@H](NC(=O)CO)CC3 [C636],0.682%
9,CC[C@@]1(O)C(=O)OCc2c1cc1n(c2=O)Cc2c-1nc1cc(F)c(Br)c3c1c2[C@H](NC(=O)C[C@H](C)O)CC3 [C600],0.62%
10,CC[C@@]1(O)C(=O)OCc2c1cc1n(c2=O)Cc2c-1nc1cc(F)c(C)c3c1c2[C@@H](NC(=O)C[C@@H](C)O)CC3 [C588],1.019%
11,CC[C@@]1(O)C(=O)OCc2c1cc1n(c2=O)Cc2c-1nc1cc(F)c(Br)c3c1c2[C@H](NC(=O)C(O)C(F)(F)F)CC3 (mixture of isomers) [C619],0.434%
12,CC[C@@]1(O)C(=O)OCc2c1cc1n(c2=O)Cc2c-1nc1cc(F)c(Cl)c3c1c2[C@@H](NC(=O)C1(O)CC1)CC3 [C593],2.514%
13,CC[C@@]1(O)C(=O)OCc2c1cc1n(c2=O)Cc2c-1nc1cc(F)c(C)c3c1c2[C@@H](NC(=O)COCCO)CC3 [C504],0.703%
14,CC[C@@]1(O)C(=O)OCc2c1cc1n(c2=O)Cc2c-1nc1cc(F)c(Cl)c3c1c2[C@H](NC(=O)[C@@H](C)O)CC3 [C678],0.277%
15,CC[C@@]1(O)C(=O)OCc2c1cc1n(c2=O)Cc2c-1nc1cc(F)c(OC)c3c1c2C(NC(=O)CO)CC3 (mixture of isomers) [C664],0.269%
16,CC[C@@]1(O)C(=O)OCc2c1cc1n(c2=O)Cc2c-1nc1cc(F)c(OC)c3c1c2C(NC(=O)C[C@H](C)O)CC3 (mixture of isomers) [C665],0.495%
17,CC[C@@]1(O)C(=O)OCc2c1cc1n(c2=O)Cc2c-1nc1cc(F)c(Br)c3c1c2[C@@H](NC(=O)C[C@@H](C)O)CC3 [C603],1.439%
18,CC[C@@]1(O)C(=O)OCc2c1cc1n(c2=O)Cc2c-1nc1cc(F)c(Cl)c3c1c2[C@H](NC(=O)C1(O)CC1)CC3 [C594],0.568%
19,CC[C@@]1(O)C(=O)OCc2c1cc1n(c2=O)Cc2c-1nc1cc(F)c(Cl)c3c1c2[C@@H](NC(=O)COCCO)CC3 [C586],0.259%
20,CC[C@@]1(O)C(=O)OCc2c1cc1n(c2=O)Cc2c-1nc1cc(F)c(Cl)c3c1c2[C@@H](N)CC3 [C730],1.35%
21,CC[C@@]1(O)C(=O)OCc2c1cc1n(c2=O)Cc2c-1nc1cc(F)c(Cl)c3c1c2[C@@H](NC(=O)[C@@H](C)O)CC3 [C677],1.008%
22,CC[C@@]1(O)C(=O)OCc2c1cc1n(c2=O)Cc2c-1nc1cc(F)c(Br)c3c1c2[C@@H](NC(=O)C(O)C(F)(F)F)CC3 (mixture of isomers) [C620],0.384%

row,SMILES,Ratio activity (%)
1,CC[C@@]1(O)C(=O)OCc2c1cc1n(c2=O)Cc2c-1nc1cc(F)c(C)c3c1c2[C@@H](NC(=O)[C@](C)(O)C(F)(F)F)CC3 [C687],1.835%
2,CC[C@@]1(O)C(=O)OCc2c1cc1n(c2=O)Cc2c-1nc1cc(F)c(Br)c3c1c2[C@@H](NC(=O)[C@@H](C)O)CC3 [C597],0.684%
3,CC[C@@]1(O)C(=O)OCc2c1cc1n(c2=O)Cc2c-1nc1cc(F)c(Br)c3c1c2[C@@H](NC(=O)CO)CC3 [C637],1.585%
4,CC[C@@]1(O)C(=O)OCc2c1cc1n(c2=O)Cc2c-1nc1cc(F)c(Cl)c3c1c2C(NC(=O)C[C@H](C)O)CC3 (mixture of isomers) [C625],0.783%
5,CC[C@@]1(O)C(=O)OCc2c1cc1n(c2=O)Cc2c-1nc1cc(F)c(Br)c3c1c2[C@H](NC(=O)C[C@@H](C)O)CC3 [C602],0.29%
6,"CC[C@@]1(O)C(=O)OCc2c1cc1n(c2=O)Cc2c-1nc1cc(F)c(Cl)c3c1c2[C@@H](NC(=O)CO)CC3 [C518, N-((1S,9S)-4-chloro-9-ethyl-5-fluoro-9-hydroxy-10,13-dioxo-2,3,9,10,13,15-hexahydro-1H,12H-benzo[de]pyrano[3′,4′:6,7]indolizino[1,2-b]quinolin-1-yl)-2-hydroxyacetamide]",2.272%
7,CC[C@@]1(O)C(=O)OCc2c1cc1n(c2=O)Cc2c-1nc1cc(F)c(C)c3c1c2[C@@H](NC(=O)C1(OCCO)CC1)CC3 [C565],1.381%
8,CC[C@@]1(O)C(=O)OCc2c1cc1n(c2=O)Cc2c-1nc1cc(F)c(Cl)c3c1c2[C@H](NC(=O)[C@](C)(O)C(F)(F)F)CC3 [C703],0.846%
9,CC[C@@]1(O)C(=O)OCc2c1cc1n(c2=O)Cc2c-1nc1cc(F)c(Cl)c3c1c2[C@@H](NC(=O)[C@@H](O)C(F)(F)F)CC3 [C627],5.054%
10,CC[C@@]1(O)C(=O)OCc2c1cc1n(c2=O)Cc2c-1nc1cc(F)c(Cl)c3c1c2[C@@H](NC(=O)[C@](C)(O)C(F)(F)F)CC3 [C704],2.271%
11,CC[C@@]1(O)C(=O)OCc2c1cc1n(c2=O)Cc2c-1nc1cc(F)c(Cl)c3c1c2[C@H](N)CC3 [C731],0.82%
12,CC[C@@]1(O)C(=O)OCc2c1cc1n(c2=O)Cc2c-1nc1cc(F)c(OC)c3c1c2C(NC(=O)C1(O)CC1)CC3 (mixture of isomers) [C667],0.658%
13,CC[C@@]1(O)C(=O)OCc2c1cc1n(c2=O)Cc2c-1nc1cc(F)c(Cl)c3c1c2C(NC(=O)[C@H](O)C1CC1)CC3 (mixture of isomers) [C624],0.916%
14,CC[C@@]1(O)C(=O)OCc2c1cc1n(c2=O)Cc2c-1nc1cc(F)c(Br)c3c1c2[C@@H](NC(=O)C[C@H](C)O)CC3 [C601],1.826%
15,CC[C@@]1(O)C(=O)OCc2c1cc1n(c2=O)Cc2c-1nc1cc(F)c(C)c3c1c2[C@@H](NC(=O)[C@H](OCCO)C1CC1)CC3 [C563],1.284%
16,CC[C@@]1(O)C(=O)OCc2c1cc1n(c2=O)Cc2c-1nc1cc(F)c(Cl)c3c1c2[C@@H](NC(=O)CCCO)CC3 [C679],0.49%
17,CC[C@@]1(O)C(=O)OCc2c1cc1n(c2=O)Cc2c-1nc1cc(F)c(Cl)c3c1c2[C@H](NC(=O)CCCO)CC3 [C680],0.546%
18,CC[C@@]1(O)C(=O)OCc2c1cc1n(c2=O)Cc2c-1nc1cc(F)c(Br)c3c1c2C(NC(=O)[C@H](C)O)CC3 (mixture of isomers) [C595],0.832%
19,CC[C@@]1(O)C(=O)OCc2c1cc1n(c2=O)Cc2c-1nc1cc(F)c(OC)c3c1c2C(NC(=O)C(O)C(F)(F)F)CC3 (some centres unmarked) [C671],0.365%
20,CC[C@@]1(O)C(=O)OCc2c1cc1n(c2=O)Cc2c-1nc1cc(F)c(Cl)c3c1c2[C@@H](NC(=O)[C@H](O)C(F)(F)F)CC3 [C626],0.54%
21,CC[C@@]1(O)C(=O)OCc2c1cc1n(c2=O)Cc2c-1nc1cc(F)c(C)c3c1c2[C@@H](NC(=O)[C@@H](OCCO)C1CC1)CC3 [C562],1.029%
22,CC[C@@]1(O)C(=O)OCc2c1cc1n(c2=O)Cc2c-1nc1cc(F)c(Cl)c3c1c2[C@H](NC(=O)COCCO)CC3 [C587],0.285%
